Reference: patent US7838535B2, “Compounds having β2 adrenergic receptor agonist and muscarinic receptor antagonist activity” (Theravance, Inc., priority 2003, dated 2010)
Structures can show the parent of a compound that is named as a salt.

Key:
[1] = biological target: T1, human dopamine D2S receptor (Homo sapiens, UniProt P14416); assay: Radioligand competition binding assay in cloned human dopamine D2S receptor; conditions: test concentration 100 nM, 0.3 nM [3H]spiperone, transfected CHO cell membranes; read-out: percent inhibition of the control radioligand specific binding
T1 construct: expressed in transfected cells; host or cells: CHO cells, transfected, cell membrane homogenates
T1 sequence (P14416 1-414 isoform P14416-2): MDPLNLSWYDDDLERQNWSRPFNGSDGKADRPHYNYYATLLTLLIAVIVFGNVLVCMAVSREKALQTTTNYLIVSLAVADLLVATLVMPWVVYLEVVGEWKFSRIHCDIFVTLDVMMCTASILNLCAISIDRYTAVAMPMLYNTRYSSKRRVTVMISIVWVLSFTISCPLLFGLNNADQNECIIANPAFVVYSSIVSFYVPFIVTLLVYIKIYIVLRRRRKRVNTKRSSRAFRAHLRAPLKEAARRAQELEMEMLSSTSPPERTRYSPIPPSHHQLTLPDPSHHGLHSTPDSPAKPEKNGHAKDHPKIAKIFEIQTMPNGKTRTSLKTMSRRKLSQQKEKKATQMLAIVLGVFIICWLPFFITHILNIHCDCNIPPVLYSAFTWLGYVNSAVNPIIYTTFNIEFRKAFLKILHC
Procedure: In this assay, the binding affinity of test compounds for the human dopamine D2S receptor in transfected CHO cells is determined using a radioligand binding assay (Grady et al., Proc. Natl. Acad. Sci. USA 86:9762 (1989). Cell membrane homogenates (5-10 μg protein) were incubated for 60 minutes at 22° C. with 0.3 nM [^3H]spiperone in the absence or presence of a test compound in a buffer containing 50 mM Tris-HCl (pH 7.4), 120 mM NaCl, 5 mM KCl, 5 mM MgCl2 and 1 mM EDTA. The test compound was used at a test concentration of 100 nM. Nonspecific binding was determined in the presence of 10 μM (+)-butaclamol. Following incubation, the samples were filtered rapidly under vacuum through glass fiber filters (GF/B, Packard) presoaked with 0.3% polyethyleneimine and rinsed several times with ice-cold 50 mM Tris-HCl using a 96-sample cell harvester (Unifilter, Packard). The filters were dried, and then counted for radioactivity in a scintillation counter (Topcount, Packard) using a scintillation cocktail (Microscint 0, Packard). The results were expressed as a percent inhibition of the control radioligand specific binding.

hM2 receptor = biological target: T2, hM2 receptor (Homo sapiens, UniProt P08172); assay: Blockade of agonist-mediated [35S]GTPγS binding, CHO-K1 membranes expressing hM2; format: biochemical; conditions: CHO-K1 cells expressing the hM2 receptor; read-out: Ki value for blockade of oxotremorine-stimulated [35S]GTPγS-binding
T2 construct: expressed in transfected cells
T2 sequence (P08172 1-466): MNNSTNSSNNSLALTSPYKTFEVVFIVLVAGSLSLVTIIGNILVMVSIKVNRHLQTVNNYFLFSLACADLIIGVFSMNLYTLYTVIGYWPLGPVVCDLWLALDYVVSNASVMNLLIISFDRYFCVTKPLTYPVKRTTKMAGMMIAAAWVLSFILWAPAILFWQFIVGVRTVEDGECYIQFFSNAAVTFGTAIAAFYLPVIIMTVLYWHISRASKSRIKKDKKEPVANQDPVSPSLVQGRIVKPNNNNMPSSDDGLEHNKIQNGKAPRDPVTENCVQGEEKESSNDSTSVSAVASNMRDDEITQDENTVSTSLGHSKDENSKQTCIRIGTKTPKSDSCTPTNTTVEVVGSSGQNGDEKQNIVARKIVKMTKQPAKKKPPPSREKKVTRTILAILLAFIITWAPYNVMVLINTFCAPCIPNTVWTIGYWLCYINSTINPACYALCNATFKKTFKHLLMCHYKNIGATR
Procedure: In a second functional assay, the functional potency of test compounds is determined by measuring the ability of the compounds to block oxotremorine-stimulated [^35S]GTPγS binding in CHO-K1 cells expressing the hM2 receptor.
At the time of use, frozen membranes were thawed and then diluted in assay buffer with a final target tissue concentration of 5-10 μg protein per well. The membranes were briefly homogenized using a Polytron PT-2100 tissue disrupter and then added to the assay plates.
The EC90 value (effective concentration for 90% maximal response) for stimulation of [^35S]GTPγS binding by the agonist oxotremorine was determined in each experiment.
To determine the ability of a test compound to inhibit oxotremorine-stimulated [^35S]GTPγS binding, the following was added to each well of 96 well plates: 25 μL of assay buffer with [^35S]GTPγS (0.4 nM), 25 μL of oxotremorine (EC90) and GDP (3 uM), 25 μL of diluted test compound and 25 μL CHO cell membranes expressing the hM2 receptor. […] Microscint-20 scintillation liquid (50 μL) was added to each well, and each plate was sealed and radioactivity counted on a Topcounter (PerkinElmer). Data were analyzed by nonlinear regression analysis with the GraphPad Prism Software package (GraphPad Software, Inc., San Diego, Calif.) using the non-linear regression, one-site competition equation. […]

| inhibition at 0.1 µM [1] [%] | Ki (hM2 receptor) [nM] | Compound |
| --- | --- | --- |
| > 30 | – | O=C(CCN1CCC(OC(=O)Nc2ccccc2-c2ccccc2)CC1)Nc1ccc(CNCCc2ccc(O)c3[nH]c(=O)sc23)cc1 [Example 2, Biphenyl-2-ylcarbamic Acid 1-[2-(4-{[2-(4-Hydroxy-2-oxo-2,3-dihydrobenzothiazol-7-yl)ethylamino]methyl}phenylcarbamoyl)ethyl]-piperidin-4-yl Ester Bis(trifluoroacetate) Salt] |
| > 75 | < 10 | O=C(Nc1ccccc1-c1ccccc1)OC1CCN(CCCCCCCCCNCCc2ccc(O)c3[nH]c(=O)sc23)CC1 [Example 1, Biphenyl-2-ylcarbamic Acid 1-{9-[2-(4-Hydroxy-2-oxo-2,3-dihydrobenzothiazol-7-yl)-ethylamino]nonyl}piperidin-4-yl Ester Bis(trifluoroacetate) Salt] |
